Assay results reported in US20250290117A1, “MOLECULAR PHENOTYPIC ANTIMICROBIAL SUSCEPTIBILITY TESTING” (priority 2024, published 2025).

Assays:
Escherichia coli [1] = assay: Molecular phenotypic antimicrobial susceptibility test (extraction or DNA purification prior to PCR); type: cell-based
Method: (§1) Detection of Molecular Phenotypic Antimicrobial Susceptibility. Disclosed herein are the methods for the detection of phenotypic antimicrobial susceptibility via molecular methods. The present invention describes how a specimen 100 with a known microbial load is incubated and then exposed to a panel of antimicrobial agents to determine sensitivity (prevention of growth) or resistance (allowance of growth) to the specific antimicrobial agents tested utilizing molecular methods.
(§2) Sample Collection. Specimens 100 are collected from patients using sterile collection processes that are employed in routine clinical care. Specimens are transported to the testing facility in boric acid preservative.
Preparation of the Specimens for Testing. […] The process for pathogen isolation includes steps of harvesting the pathogen (e.g., via centrifugation), isolating pathogen DNA via a DNA isolation and/or purification kit, and performing PCR on the pathogen DNA via PCR components (e.g., primers, enzymes, buffers) as would be known to the skilled artisan. […] This aliquot is used for antimicrobial susceptibility testing if indicated based on the pathogen detection results. […] Specimens 100 with lower pathogen loads could also be utilized in the antibiotic susceptibility phase of testing with or without a longer incubation period.
(§3) Preparation of Antimicrobial Susceptibility Testing Plates. Antimicrobial solutions are prepared at known concentrations. The specific antimicrobials and their concentrations are selected based on the pathogen of interest and the described antimicrobial resistance breakpoints for that specimen pathogen and antimicrobial combination. These antimicrobials have been selected based on those commonly utilized by healthcare providers in routine clinical care for the specific type of suspected infection. The number and types of antimicrobials utilized can be customized based on the infection source, pathogen detected, patient-specific factors such as allergies or other health conditions (e.g., chronic kidney disease or concurrent medication use), or healthcare provider preferences such as antimicrobial availability or cost.
The antimicrobial solutions are prepared in liquid culture media (such as Muller Hinton Broth) to achieve the desired antimicrobial concentration and are then stored at −80° C. until use. For a given specimen, each antimicrobial is tested at a single or multiple antimicrobial concentration(s) which is its established breakpoints for sensitivity. The antimicrobial solutions are prepared and plated out for each specific pathogen. […] This allows for evaluation of pathogen load when no antimicrobial is present.
Specimen Exposure to Antimicrobial Agents. The 1 mL aliquot of the specimen 100 previously mixed with culture media and incubated is obtained. Using optical density measurements as a guide, the specimen 100 is diluted to 0.5 McFarland.
Antimicrobial exposure plates are typically placed into an incubator for 12-16 hours.
Nucleic Acid Amplification of Antimicrobial Agent Exposed Pathogens. The antimicrobial exposure plate is removed after the period of incubation. The specimen then undergoes a purification or lysis step. For example, the specimen may undergo a purification step (e.g., magnetic bead-based or other separation protocol to isolate genetic material). In another example, the specimen may undergo a cell lysis step. For example, buffer (e.g., lysis buffer) may be added and incubated in the thermal cycler for preparation for direct PCR. Next, the specimen may undergo a polymerase chain reaction (PCR) testing protocol, whereby a semi-quantitative PCR method is utilized. This may be completed either with or without a specific extraction protocol step. The pathogens can be individually targeted and detected, or a universal genetic sequence can be utilized to detect the antimicrobial susceptibility of the specimen as a whole.

Escherichia coli [2] = assay: Traditional culture-based antimicrobial susceptibility test; type: cell-based
Excerpt: Table 3 illustrates the results of an example antimicrobial agent susceptibility test of the current application versus a traditional culture-based antimicrobial agent susceptibility test for multiple Escherichia coli isolates, in accordance with one or more embodiments of the disclosure. These specimens underwent extraction or DNA purification prior to PCR. As in Tables 1 and 2, the results of the test of the current application are similar to the results from the traditional test. […]
Table 8 illustrates the results of an example antimicrobial agent susceptibility test of the current application versus a traditional culture-based antimicrobial agent susceptibility test for a low level positive with <10,000 cells/mL in the original specimen. These specimens were tested with direct PCR (e.g., no extraction DNA purification step prior to PCR) after 16 hours of incubation. As in Tables 1, 2, 3, 5, and 7, the results of the test are similar to the traditional test. […]

P. aeruginosa [3] = assay: Molecular phenotypic antimicrobial susceptibility test with direct PCR (no extraction DNA purification step); type: cell-based, Pseudomonas aeruginosa
Method: as §1
as §2, with “preservative. Specimens 100 are subsequently divided into a first sample 104 and a second sample 108.” for “preservative.”
Preparation of the Specimens for Testing. The specimens 100 are put through a pathogen identification process using PCR technology (e.g., using the first sample 104). The process for pathogen isolation includes steps of harvesting the pathogen (e.g., via centrifugation), isolating pathogen DNA via a DNA isolation and/or purification kit, and performing PCR on the pathogen DNA via PCR components (e.g., primers, enzymes, buffers) as would be known to the skilled artisan. Simultaneously, an additional aliquot of the same specimen (e.g., the second sample 108) is placed with liquid culture media and incubated for 4-6 hours. This aliquot is used for antimicrobial susceptibility testing if indicated based on the pathogen detection results. After pathogen identification is completed and if more than 10,000 cells/mL of bacteria (e.g., eligible bacteria) are detected in the source specimen, the second sample 108 then enters the antimicrobial susceptibility phase of testing. Specimens 100 with lower pathogen loads could also be utilized in the antibiotic susceptibility phase of testing with or without a longer incubation period.
as §3
The antimicrobial solutions are prepared in liquid culture media (such as Muller Hinton Broth) to achieve the desired antimicrobial concentration and are then stored at −80° C. until use. For a given specimen, each antimicrobial is tested at a single or multiple antimicrobial concentration(s) which is its established breakpoints for sensitivity. The antimicrobial solutions are prepared and plated out for each specific pathogen. This allows ease of use on the day of testing after defrosting the plate 112. Table 1, which illustrates the results of molecular phenotypic antimicrobial susceptibility testing when more than one organism is present in the source specimen, provides an example of an antimicrobial plate 112 prepared for this purpose. Of note, control wells containing only culture media are present on all plates 112. This allows for evaluation of pathogen load when no antimicrobial is present.
Specimen Exposure to Antimicrobial Agents. The 1 mL aliquot of the specimen 100 previously mixed with culture media and incubated is obtained. Using optical density measurements as a guide, the specimen 100 is diluted to 0.5 McFarland. […]

P. aeruginosa [4] = assay: Traditional culture-based antimicrobial susceptibility test; type: cell-based, Pseudomonas aeruginosa; details: P. aeruginosa isolate MRSN1938
Method: Table 5 illustrates the results of an example antimicrobial agent susceptibility test of the current application versus a traditional culture-based antimicrobial agent susceptibility test for multiple specimens with different pathogens, in accordance with one or more embodiments of the disclosure. These specimens were tested with direct PCR (e.g., no extraction DNA purification step prior to PCR). As in Tables 1, 2, and 3, the results of the test of the current application are similar to the results from the traditional test.
Result Reporting to Healthcare Providers. The results from the antimicrobial exposure are reported to the ordering healthcare provider. This information can be utilized by the healthcare provider when selecting an antimicrobial regimen for their individual patient based on these individual specimen results and patient specific factors. […] The current standard of care for antimicrobial susceptibility testing involves the growth, isolation, and exposure of pathogens to antimicrobials. This traditional culture and sensitivity process can take multiple days to obtain results, limiting the ability of healthcare providers to receive timely results to make actionable changes in patient care or management. Healthcare providers desire a method to obtain antimicrobial susceptibility results with quicker turn-around-time. This application discloses a molecular-based phenotypic antimicrobial susceptibility method which involves pathogen exposure to a panel of antimicrobial agents at their specified minimum inhibitory concentration breakpoints for sensitivity. This method allows for more timely antimicrobial susceptibility results.

CC(C)(O/N=C(\C(=O)N[C@@H]1C(=O)N2C(C(=O)[O-])=C(C[n+]3ccccc3)CS[C@H]12)c1csc(N)n1)C(=O)O [Ceftazidime]
Ct at Sensitive Breakpoint (Escherichia coli [1]; E. coli isolate 1, Ct at control (average) 21.238): 25.605 | Molecular Antimicrobial Susceptibility Result (Escherichia coli [1]; E. coli isolate 1, at sensitive breakpoint): Sensitive (Antimicrobial wells with pathogen load detected below the control wells (typically >2 cycle thresholds later) may be reported as Sensitive) | Ct at Sensitive Breakpoint (Escherichia coli [1]; E. coli isolate 2, Ct at control (average) 21.270): 22.508 | Molecular Antimicrobial Susceptibility Result (Escherichia coli [1]; E. coli isolate 2, at sensitive breakpoint): Sensitive (Antimicrobial wells with pathogen load detected below the control wells (typically >2 cycle thresholds later) may be reported as Sensitive) | Ct at Sensitive Breakpoint (Escherichia coli [1]; E. coli isolate 3, Ct at control (average) 22.0995): 22.583 | Molecular Antimicrobial Susceptibility Result (Escherichia coli [1]; E. coli isolate 3, at sensitive breakpoint): Resistant | Traditional Culture Result (Escherichia coli [2]; E. coli isolate 1 (Table 3)): Sensitive | Traditional Culture Result (Escherichia coli [2]; E. coli isolate 2 (Table 3)): Sensitive | Traditional Culture Result (Escherichia coli [2]; E. coli isolate 3 (Table 3)): Sensitive | Ct at Sensitive Breakpoint (P. aeruginosa [3]; P. aeruginosa isolate MRSN1938, Ct at control (average) 12.031): 24.596 | Molecular Antimicrobial Susceptibility Result (P. aeruginosa [3]; P. aeruginosa isolate MRSN1938, at sensitive breakpoint): Sensitive (Antimicrobial wells with pathogen load detected below the control wells (typically >2 cycle thresholds later) may be reported as Sensitive) | Traditional Culture Result (P. aeruginosa [4]): Sensitive
